The values below come from US20260285924A1, “PEPTIDE THERAPEUTICS” (priority 2023, published 2026).

The test system of assay [1] is A-to-I RNA editing reporter (ADAR) in A375. In words: A-to-I PepTile (REPTILE) screen: A-to-I editing of dsRNA hairpin reporter by NGS. The format is cell-based, human. Particulars: for % A-to-I editing (IFNα): IFNα 6000 U/ml for 48 hours; for % A-to-I editing (Basal): no treatment. The procedure, abridged: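 Lentiviral 40-mer peptide tiles (dsRBD proteins and ADAR1/2 interactors) each encoded on the same transcript as a 71 bp dsRNA hairpin reporter, transduced into A375 cells at low MOI, ± IFNα 6000 U/ml for 48 hours. Reporter A-to-I editing % per peptide from cDNA NGS; tiles with ≥100 read counts only.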

Assay [2] deals with A375 cells. In words: A-to-I PepTile screen: fitness effect upon IFNα (PepTile abundance untreated vs treated). The format is cell-based, human. The essentials: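 Lentiviral library of 40-mer peptides tiled every 4 amino acids from dsRBD proteins and ADAR1/2 interactors, each fused to a 71 bp dsRNA hairpin A-to-I editing reporter, was transduced into A375 cells at low MOI. Cells were left untreated or given IFNα 6000 U/ml for 48 h; PepTile abundance from NGS of reporter RNA (≥100 reads cut-off) gave a fitness score.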

Setting [3] is: A375, PepTile abundance upon IFNα treatment, negative = synthetic lethal, positive = protector.
[4] abbreviates: IFNα 6000 U/ml for 48 hours vs untreated.

For “MSILARLDMQRGVHGRLMDNSTSVREAAVELLGRFVLCRPQ [NIPBL_452]”, the “% A-to-I editing (IFNα)” value in assay [1] stood at 50.76%. Moreover, in assay [1], the “% A-to-I editing (Basal)” value is reported as 38.35%. Also, the “Fitness Score IFNα” value in assay [2] (setting [3]) and in assay [2] (setting [4]) was 2.31 in each case.

As to “MSKVTRAQIEDTLRRDHQLREAPDTAEKAKSHLEVPLEENV [CCDC124_24]”, in assay [1], the “% A-to-I editing (IFNα)” value turned out to be 13.63% and the “% A-to-I editing (Basal)” value came out at 12.50%. Further, in assay [2] (setting [4]), the “Fitness Score IFNα” value is -1.31.

As for “MSLLTGLSDSQVRAFRHTSTLAAMKLMTALVNVALNLSIHQ [STAG1_52]”, in assay [1], the “% A-to-I editing (IFNα)” value is reported as 58.66% and the “% A-to-I editing (Basal)” value is 46.34%. The “Fitness Score IFNα” value in assay [2] (setting [4]) is on record as -0.26.

For “MSQHRKKEADSVYGEWVPVEKNGEENKDDDNVFSSNLPSEP [SON_53]”, in assay [1], the “% A-to-I editing (IFNα)” value turned out to be 25.27% and the “% A-to-I editing (Basal)” value worked out at 14.38%. Further, in assay [2] (setting [4]), the “Fitness Score IFNα” value was determined as 1.03.

In the case of “MSQVRAFRHTSTLAAMKLMTALVNVALNLSIHQDNTQRQYE [STAG1_54]”, in assay [1], the “% A-to-I editing (IFNα)” value is recorded as 54.81% and the “% A-to-I editing (Basal)” value came to 43.52%. Besides, the “Fitness Score IFNα” value in assay [2] (setting [4]) is 0.28.

On to “MVEKAVSSAAGPLGPGDAVRRVLECVATGTLLTDGPGLQDP [ZFR2_205]”, for which, in assay [1], the “% A-to-I editing (IFNα)” value is given as 54.50% and the “% A-to-I editing (Basal)” value is 45.00%. Further, the “Fitness Score IFNα” value in assay [2] (setting [4]) turned out to be 0.12.

For “MVGEYSNLEVNASWTKERWNQEFTKHQVLIMTCYVALNVLK [DICER1_31]”, in assay [1], the “% A-to-I editing (IFNα)” value was 48.57% and the “% A-to-I editing (Basal)” value was 37.36%. Moreover, the “Fitness Score IFNα” value in assay [2] (setting [4]) is given as 0.94.

On to “MVISTFKKRAVEITGAGPGASSVCNSAPGSGPSSPNSSHST [HDAC5_73]”, for which, in assay [1], the “% A-to-I editing (IFNα)” value worked out at 63.84% and the “% A-to-I editing (Basal)” value stood at 49.71%. Further, the “Fitness Score IFNα” value in assay [2] (setting [4]) was found to be 0.74.

Consider “MVMNLLESAGFSRSNPYYIVKQGKINQMATAPDSQRLKLLR [SMC3_31]”, for which, in assay [1], the “% A-to-I editing (IFNα)” value worked out at 54.66% and the “% A-to-I editing (Basal)” value is given as 41.67%. Besides, in assay [2] (setting [4]), the “Fitness Score IFNα” value is recorded as 1.72.

Regarding “MVSSAAGPLGPGDAVRRVLECVATGTLLTDGPGLQDPCERD [ZFR2_206]”, in assay [1], the “% A-to-I editing (IFNα)” value is 55.48% and the “% A-to-I editing (Basal)” value was 44.05%. For the same sequence, the “Fitness Score IFNα” value in assay [2] (setting [4]) stood at 0.81.

In the case of “MVVLLCRQPCASQSSLKDINWDSSQWQPLIQDRCFLSWLVK [UPF1_52]”, in assay [1], the “% A-to-I editing (IFNα)” value is listed as 47.63% and the “% A-to-I editing (Basal)” value came to 50.56%. In assay [2] (setting [4]), the “Fitness Score IFNα” value is on record as -0.80.

Turning to “MVYQAPLSLATVPHQALGRTQSSPAAPGGMKSPPDQPVKHL [HDAC5_161]”, in assay [1], the “% A-to-I editing (IFNα)” value is 48.17% and the “% A-to-I editing (Basal)” value amounted to 43.88%. The “Fitness Score IFNα” value in assay [2] (setting [4]) is recorded as -0.12.

Regarding “MWDSIIQQATKNVDILKDPETVKQLGSILKTNVRACKAVGH [XPO1_167]”, in assay [1], the “% A-to-I editing (IFNα)” value stood at 25.96% and the “% A-to-I editing (Basal)” value turned out to be 11.93%. For the same sequence, the “Fitness Score IFNα” value in assay [2] (setting [4]) is recorded as 1.42.

For the sequence “MYSGYEAAVYSAASSYYQQQQQQQKQAAAAAAAAAATAAWT [ZFR_67]”, in assay [1], the “% A-to-I editing (IFNα)” value turned out to be 47.21% and the “% A-to-I editing (Basal)” value is reported as 41.43%. For the same sequence, the “Fitness Score IFNα” value in assay [2] (setting [3]) is reported as 2.43. Besides, in assay [2] (setting [4]), the “Fitness Score IFNα” value was 2.43.
